Test results from patent US7259183B2, “Indole, indazole and indoline derivatives as CETP inhibitors” (Hoffmann-La Roche Inc., priority 2004, dated 2007).

What follows are molecules tested against T1, CETP (Homo sapiens, UniProt P11597) (assay: CETP inhibition, buffer assay system (SPA, radiolabeled cholesteryl ester transfer from HDL to LDL)). Conditions: partially purified CETP, selected compounds, read-out: 1C50.
T1 sequence (P11597 18-493): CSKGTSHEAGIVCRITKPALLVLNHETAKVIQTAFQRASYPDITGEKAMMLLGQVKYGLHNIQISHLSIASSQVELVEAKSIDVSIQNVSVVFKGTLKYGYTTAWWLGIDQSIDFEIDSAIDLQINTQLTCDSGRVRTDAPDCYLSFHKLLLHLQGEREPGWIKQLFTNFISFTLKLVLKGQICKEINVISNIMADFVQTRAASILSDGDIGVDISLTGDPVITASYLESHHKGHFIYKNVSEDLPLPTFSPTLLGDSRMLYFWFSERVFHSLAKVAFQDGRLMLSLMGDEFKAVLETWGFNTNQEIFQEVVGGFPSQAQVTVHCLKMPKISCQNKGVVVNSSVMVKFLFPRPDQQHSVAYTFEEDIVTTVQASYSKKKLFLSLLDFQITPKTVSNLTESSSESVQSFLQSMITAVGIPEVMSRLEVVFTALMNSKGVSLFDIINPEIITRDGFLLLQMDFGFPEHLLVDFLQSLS
Type: biochemical
Experimental: Activity of CETP inhibitors was determined using a buffer assay system. Partially purified CETP transferred radiolabeled cholesteryl ester from HDL donor particles to biotin-labeled LDL acceptor particles. The reaction was stopped by addition of streptavidin-coupled scintillation proximity assay (SPA) beads. These beads captured the biotinylated acceptor particles and transferred radioactivity was measured. The assay system was purchased and performed according to manufacturer's recommendations (Amersham Biosciences). Inhibitory activity of compounds was determined as percentage of positive control activity containing CETP together with donor and acceptor particles. Serial dilution of compounds was performed in order to determine the IC50 values.
Molecule `CC(C)CCN(Cc1ccc(C(C)(C)C)cc1)C(=O)c1cccc2cc[nH]c12` [Compound 1, 1H-Indole-7-carboxylic acid (4-tert-butyl-benzyl)-(3-methyl-butyl)-amide] has an IC50 of 0.539 µM.
In the case of `CC(C)(C)c1ccc(CN(CCc2ccc(F)cc2)C(=O)c2cccc3c2NCC3)cc1` [Compound 76, 2,3-Dihydro-1H-indole-7-carboxylic acid (4-tert-butyl-benzyl)-[2-(4-fluoro-phenyl)-ethyl]-amide], the IC50 is reported as 0.058 µM.
`CC(C)(C)c1ccc(CN(CCOc2ccc(F)cc2)C(=O)c2cccc3cc[nH]c23)cc1` [Compound 90, 1H-Indole-7-carboxylic acid (4-tert-butyl-benzyl)-[2-(4-fluoro-phenoxy)-ethyl]-amide] showed an IC50 of 0.202 µM.
